Data on eleven compounds can be found in patent publication US4783530A, “8-arylxanthines” (priority 1987, dated 1988).

Series [1] deals with NECA-induced depression of force and rate of an isolated guinea pig heart. Kind of series: NECA Depressed Langendorff Heart. The conditions noted are these: for IC50: guinea pig; for NECA - Depressed Langendorff Heart Force/Rate: ratio of force to rate TC50. As for the experimental part: NECA Depressed Langendorff Heart. Hearts were rapidly excised from male guinea-pigs and transferred to a beaker containing a Krebs-bicarbonate solution at 5° C. Each heart was gently massaged to clear it of blood and clots, and the surrounding tissue was cut away. The cut aortic stump was secured to a glass cannula for retrograde perfusion of the coronary circulation.
Perfusion was at a constant rate of 5-7 ml/min, produced with a Holter peristaltic pump. […] Alterations in perfusion pressure arising from changes in coronary vascular resistance were recorded on a Gould recorder by means of Gould pressure transducers attached at a sidearm of the aortic cannula. Isometric contractions of the heart were recorded with a Grass transducer attached by a suture via a pulley to a clip on the apex of the ventricles. Rates of contraction were determined by counting heart beats.
Drugs were added directly into the perfusion solutions. Drug concentrations were changed by switching solutions. Cardiac functions were depressed with NECA or adenosine by infusing a solution of one or the other ([…]) into the perfusion solution through an injection port located immediately adjacent to the warming coil. IC50 is defined as the concentration of compound that will cause 50 percent inhibition of the NECA-induced depression of force and rate of an isolated guinea pig heart.

The nature of series [2]: Solubility (mg/ml) 37° C.
Series [3] addresses A2 receptor (Rattus norvegicus, UniProt P30543). Kind of series: biochemical. The conditions noted are these: Schild analysis; A2 receptor mediated stimulation of adenylate cyclase, PC12 membranes.
Description: The A2 receptor mediated stimulation of adenylate cyclase was measured by a modification of the procedure of Premont et al. (Molec. Pharmacol. 16: 790, 1979). Typically, pheochromocytoma cell (PC12) membranes were thawed and added to a reaction mixture containing a final concentration of 25 mM Tris-HCl, pH 7.1, 1 mM MgCl2, 50 μM ATP, 50 μM cAMP, 0.1 mM papaverine, 0.4 IU/ml adenosine deaminase, 5 mM creatine phosphate, 0.2 mg/ml creatine phosphokinase, 10 μg membrane protein, [α^32 P]ATP (μ10^-6 DPM), 5 μM GTP, and various concentrations of adenosine agonists and/or antagonists in a final volume of 100 μl. The reaction was initiated with the addition of tissue and incubated 30° C. for 20 minutes. Reactions were terminated with 100 μl of 40 mM ATP, 1.4 mM cAMP and 2% SDS. ^32 P-cAMP isolated according to the procedure to the procedure of Salomon et al. (Adv. Cyclic Nucleotide Res. 10: 35, 1979).
(§1) The Ki values for the test compounds were derived from Schild analysis as described by Tallarida et al. (Life Sciences 25: 637, 1979) in which the progressive shift in the dose response to a standard agonist was assessed using 3 concentrations of the test compound distributed over a 100-fold molar range. All incubations were performed in triplicate.
The target in series [4] is T1, adenosine receptor sites on guinea pig cortical membranes (Cavia porcellus, UniProt P47745).
T1 sequence (P47745 1-326): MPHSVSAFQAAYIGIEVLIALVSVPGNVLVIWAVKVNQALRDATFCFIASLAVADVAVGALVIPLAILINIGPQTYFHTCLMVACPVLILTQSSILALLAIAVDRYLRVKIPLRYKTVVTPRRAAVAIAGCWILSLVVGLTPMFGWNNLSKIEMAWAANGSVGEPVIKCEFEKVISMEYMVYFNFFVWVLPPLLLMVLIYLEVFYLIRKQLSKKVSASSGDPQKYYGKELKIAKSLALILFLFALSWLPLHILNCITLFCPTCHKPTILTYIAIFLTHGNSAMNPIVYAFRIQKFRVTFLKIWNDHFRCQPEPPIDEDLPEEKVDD
The series is described as follows: Adenosine Receptor Binding Assay, inhibition of specific [^3 H]-cyclohexyladenosine ([^3 H]CHA) binding. The conditions noted are these: 4 nM [^3 H]CHA, 120 minutes at 23° C.
Description: Adenosine Receptor Binding Assay. The potency of 8-arylxanthine compounds to inhibit the specific binding of [^3 H]-cyclohexyladenosine ([^3 H]CHA) to adenosine receptor sites on guinea pig cortical membranes was examined using standard in vitro ligand binding techniques. […] Briefly, guinea pig cortical tissue was homogenized in ice cold 50 mM Tris HCl buffer (pH 7.4) using a Brinkman Polytron. The homogenate was centrifuged at 48,000 x g for 10 minutes and the resulting tissue pellet was suspended in fresh cold buffer to yield a tissue concentration of 10 mg (wet weight)/ml. This tissue suspension was incubated for 30 minutes at 37° C. in the presence of adenosine deaminase (0.2 I.U./mg tissue). Following this incubation, the tissue suspension was centrifuged as before and the resulting pellet was suspended in fresh buffer at a concentration of 7-10 mg tissue (wet weight)/ml. Inhibition of the specific binding of [^3 H]CHA (New England Nuclear; 25 Ci/mmol) was examined in a total volume of 2 ml containing 50 mM Tris HCl, 7-10 mg of cortical tissue (1 ml of tissue suspension), 4 nM [^3 H]CHA and various concentrations of the test compounds. Nonspecific binding was determined in the presence of 10^-5 M 2-chloroadenosine. The binding reaction was carried out for 120 minutes at 23° C. and was terminated by vacuum filtration over Whatman GF/B filters using a Brandel M-48R Cell Harvester. The filters were washed 3 times with 3 ml of cold buffer and placed in scintillation vials in a Beckman LS 3801 scintillation counter. Dose-inhibition curves were generated with 10-12 concentrations of the test compound using triplicate incubations. The inhibition constants (Ki value) were calculated using EBDA, a log-logit iterative curve fitting program (McPhearson, Comput. Prog. Biomed. 107:220, 1983).

Series [5] has as its target T2, A1 receptor (Rattus norvegicus, UniProt P25099).
T2 sequence (P25099 1-326): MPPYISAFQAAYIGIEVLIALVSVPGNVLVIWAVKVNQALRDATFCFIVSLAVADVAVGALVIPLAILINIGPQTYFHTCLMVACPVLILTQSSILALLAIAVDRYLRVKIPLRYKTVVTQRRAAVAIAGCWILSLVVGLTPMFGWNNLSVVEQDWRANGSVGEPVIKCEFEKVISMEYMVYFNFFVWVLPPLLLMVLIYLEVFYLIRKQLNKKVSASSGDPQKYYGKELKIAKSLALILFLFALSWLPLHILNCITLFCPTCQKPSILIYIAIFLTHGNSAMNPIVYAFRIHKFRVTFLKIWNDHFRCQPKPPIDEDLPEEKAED
The series is described as follows: biochemical. The conditions noted are these: for Ki: Schild analysis, A1 receptor mediated inhibition of adenylate cyclase; for Adenylate cyclase A2 /A1: ratio of A2 Ki to A1 Ki.
Description: The A1 receptor mediated inhibition of adenylate cyclase activity was measured by a modification of the procedure of Londos et al. (Proc. Natl. Acad. Sci. 75: 5362, 1978). Membrane protein (10-15 μg) was added to a reaction mixture containing a final concentration of 25 mM Tris-HCl (pH 7.4), 2 mM MgCl2 50 μM ATP, 50 μM cAMP, 1 mM dithiothreitol, 0.25 mg/ml BSA, 1 IU/ml adenosine deaminase, 5 mM creatine phosphate, 0.2 mg/ml creatine phosphokinase, 80 mM NaCl, [α^32 P]ATP (1.5 c 10^-6 DPM) and 100M GTP in 100 μl final volume. Incubations were carried out for 10 minutes at 24° C.
as §1

For series [6], the system named is guinea pig thymocytes. The conditions noted are these: less potent than 8-phenyltheophylline; NECA-induced cyclic AMP accumulation; cited from earlier work.
Series [7] has as its system adenosine receptors. The conditions noted are these: Daly et al. J. Med. Chem. 1985; cited from earlier work.
The subject of series [8] is animals. The conditions noted are these: in vivo; cited from earlier work.
Series [9] deals with adenosine (A1) receptor. The conditions noted are these: cited from earlier work.
[10] abbreviates: 50 percent inhibition of the NECA-induced depression of force, read-out: NECA - Depressed Langendorff Heart TC50 Force.
The mark [11] stands for this setting: 50 percent inhibition of the NECA-induced depression of rate, read-out: NECA - Depressed Langendorff Heart TC50 Rate.

≈ marks a conversion by molar mass, not a printed value. Counter-ions that a name gives are not always drawn. Like-named read-outs stand apart in the source and are kept apart here. Where only a bound is given, the exact number is not on record here.

Sequence of A2 receptor (P30543 whole entry): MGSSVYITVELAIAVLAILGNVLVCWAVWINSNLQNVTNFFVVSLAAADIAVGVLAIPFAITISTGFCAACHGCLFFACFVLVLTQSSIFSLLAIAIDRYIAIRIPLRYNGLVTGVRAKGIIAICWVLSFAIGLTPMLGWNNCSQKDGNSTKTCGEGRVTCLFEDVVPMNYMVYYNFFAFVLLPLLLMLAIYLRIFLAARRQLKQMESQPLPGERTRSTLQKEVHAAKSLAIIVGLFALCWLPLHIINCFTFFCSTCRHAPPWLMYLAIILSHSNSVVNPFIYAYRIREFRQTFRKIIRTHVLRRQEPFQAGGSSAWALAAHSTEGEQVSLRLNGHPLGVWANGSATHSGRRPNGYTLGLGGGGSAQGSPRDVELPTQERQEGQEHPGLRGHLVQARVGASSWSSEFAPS

The solubility is the concentration that dissolves in the medium under given conditions. Lower therefore signals little dissolved substance. On to `CCCn1c(=O)c2[nH]c(-c3cccc(OCC(O)CO)c3)nc2n(CCC)c1=O` (stereo not shown) [Pr Pr OCH2 (CH2 OH)2 H, 1,3-Dipropyl-8-[3-(2,3-dihydroxypropyloxy)phenyl]xanthine], for which the IC50 came out at 490 nM in series [1] (setting [10]) and 1040 nM in series [1] (setting [11]). The “NECA - Depressed Langendorff Heart Force/Rate” value in series [1] came to 0.47. The compound further showed a solubility in series [2] of 250 µg/mL (≈ 621 µM).
Broadly, the Ki is a measure of affinity in units of concentration, obtained from inhibition or displacement. A lower Ki goes with a stronger hold on the target. As to `CCCn1c(=O)c2[nH]c(-c3ccc(O)c(CN(C)C)c3)nc2n(CCC)c1=O` [Pr Pr CH2 NMe2 OH, 1,3-Dipropyl-8-(3-N,N-dimethylaminomethyl-4hydroxyphenyl)xanthine hydrochloride hydrate], the IC50 in series [1] (setting [10]) was found to be 1490 nM; in series [1] (setting [11]) it was 2060 nM. Besides, in series [1], the “NECA - Depressed Langendorff Heart Force/Rate” value came to 0.72. Also, the Ki in series [3] was 664 nM; in series [4], 169 nM; in [5], 88.7 nM. In addition, the “Adenylate cyclase A2 /A1” value in [5] was 7. Further, the solubility in series [2] was 25000 µg/mL.
Regarding `Cn1c(=O)c2[nH]c(-c3ccc(S(=O)(=O)O)cc3)nc2n(C)c1=O` [(II), 8-[4-sulfophenyl]-theophylline], the “potency relative to 8-phenyltheophylline” value in [6] was 3 fold. Besides, the “selectivity after introduction of the sulfonyl group” value in series [7] is “decrease in selectivity”.
As to `CCCn1c(=O)c2[nH]c(-c3ccc(NC(=O)N(C)C)cc3)nc2n(CCC)c1=O` [Pr Pr H NHC(=O)NMe2, 1,3-Dipropyl-8-(4-N,N-dimethylureidophenyl) xanthine], the IC50 stood at 360 nM in series [1] (setting [10]) and 980 nM in [1] (setting [11]). For the same compound, the “NECA - Depressed Langendorff Heart Force/Rate” value in [1] stood at 0.61. The Ki in series [3] came to 131 nM; in series [4], 86 nM. Also, in [2], the concentration in solution (solubility) came to 80 µg/mL (≈ 201 µM).
With `CCCn1c(=O)c2[nH]c(-c3ccc(Cl)cc3N)nc2n(CCC)c1=O` [PACPX, reference compound], the “overt activity in animals” value in series [8] is on record as “little overt activity in animals”. Moreover, in series [9], the “selectivity toward A1 adenosine receptor” value is reported as “selective toward A1 --adenosine receptor”. The “force and rate properties / effect on force and rate of contraction (in words)” value in series [1] (NECA depressed Langendorff heart, guinea pigs) is “unfavorable force and rate properties”. Further, the IC50 amounted to 1110 nM in series [1] (setting [10]) and 180 nM in series [1] (setting [11]). The “NECA - Depressed Langendorff Heart Force/Rate” value in series [1] turned out to be 6.17. Further, the Ki in series [3] is 421 nM; in series [4], 45 nM; in series [5], 12.6 nM. For the same compound, the “Adenylate cyclase A2 /A1” value in series [5] was 33.4. In addition, in [2], the solubility was under 0.4 µg/mL.
As for `CNC(=N)c1ccc(-c2nc3c([nH]2)c(=O)n(C)c(=O)n3C)cc1` [Me Me H C(NH)NHMe, 1,3-Dimethyl-8-(4-N-methylamidinophenyl)xanthine hydrochloride hydrate], the IC50 in series [1] (setting [10]) was determined as 3640 nM; in series [1] (setting [11]), 18400 nM. Further, in series [1], the “NECA - Depressed Langendorff Heart Force/Rate” value is 0.20. In [4], this compound had an inhibition constant Ki of 1840 nM.
On to `CCCn1c(=O)c2[nH]c(-c3ccc(C(=N)N)cc3)nc2n(CCC)c1=O` [Pr Pr H C(NH)NH2, 1,3-Dipropyl-8-(4-amidinophenyl)xanthine hydrochloride hemi-hydrate], for which the IC50 was determined as 1400 nM in [1] (setting [10]) and 7030 nM in series [1] (setting [11]). For the same compound, in series [1], the “NECA - Depressed Langendorff Heart Force/Rate” value was found to be 0.20. For the same compound, the Ki in [3] worked out at 309 nM; in series [4], 81 nM; in [5], 9.7 nM. For the same compound, the “Adenylate cyclase A2 /A1” value in series [5] stood at 31.9. Besides, the solubility in [2] amounted to 3000 µg/mL.
As for `CCCn1c(=O)c2[nH]c(-c3ccc(C(=O)OCC)cc3)nc2n(CCC)c1=O` [Pr Pr H COOEt, 1,3-Dipropyl-8-(4-carboethoxyphenyl)xanthine], the results for the IC50 in series [1] (setting [10]) and in series [1] (setting [11]) were 4780 nM and 7840 nM, respectively. In addition, the “NECA - Depressed Langendorff Heart Force/Rate” value in [1] was 0.61. In addition, the figures for the Ki in series [3], in series [4] and in series [5] were 529 nM, 423 nM and 26.9 nM, respectively. For the same compound, the “Adenylate cyclase A2 /A1” value in series [5] worked out at 20.
As for `CCCn1c(=O)c2[nH]c(-c3ccc(C(=N)NC)cc3)nc2n(CCC)c1=O` [Pr Pr H C(NH)NHMe, 1,3-Dipropyl-8-(4-N-methylamidinophenyl)xanthine hydrochloride hydrate], the IC50 was 1470 nM in [1] (setting [10]) and 3770 nM in series [1] (setting [11]). For the same compound, the “NECA - Depressed Langendorff Heart Force/Rate” value in series [1] is reported as 0.39. Besides, the figures for the Ki in series [3], in series [4] and in series [5] were 140 nM, 129 nM and 12 nM, respectively. In series [5], the “Adenylate cyclase A2 /A1” value stood at 11.7. The compound also returned a solubility in series [2] of 1000 µg/mL.
On to `CCCn1c(=O)c2[nH]c(-c3ccc(CN)cc3)nc2n(CCC)c1=O.Cl.O` [Pr Pr H CH2 NH2, 1,3-Dipropyl-8-(4-aminomethylphenyl)xanthine hydrochloride hydrate], for which the figures for the IC50 in series [1] (setting [10]) and in series [1] (setting [11]) were 570 nM and 2000 nM, respectively. The “NECA - Depressed Langendorff Heart Force/Rate” value in series [1] came out at 0.28. The Ki came to 432 nM in series [3], 66.8 nM in series [4] and 16.3 nM in series [5]. In addition, the “Adenylate cyclase A2 /A1” value in [5] was found to be 26. Moreover, the solubility in series [2] was 500 µg/mL.
With `Cl.Cn1c(=O)c2[nH]c(-c3ccc(C(=N)N)cc3)nc2n(C)c1=O.O` [Me Me H C(NH)NH2, 1,3-Dimethyl-8-(4-amidinophenyl)xanthine hydrochloride hydrate], the results for the IC50 in [1] (setting [10]) and in [1] (setting [11]) were 2010 nM and 15600 nM, respectively. In addition, the “NECA - Depressed Langendorff Heart Force/Rate” value in [1] was determined as 0.13. Also, the results for the inhibitory constant (Ki) in [3], in series [4] and in [5] were 523 nM, 1140 nM and 244 nM, respectively. Further, the “Adenylate cyclase A2 /A1” value in series [5] was found to be 2.1.
